Measured values: article PMC10016340 (Chemical Science, 2023)
Read-outs that look alike come from different tables or passages of the source. Blank lines part the entries; values can stand above or below the compound they belong to.

How the values were obtained:
[1] = biological target: T1, αSO (α-synuclein oligomers) (Homo sapiens, UniProt P37840); details: cited from earlier work
α-syn = α-syn (Homo sapiens, UniProt P37840); assay: ThT aggregation kinetics of α-syn; assay type: biochemical; details: for Effect on α-syn fibril formation (ThT, words): 300 rpm, 37 °C
αSOs-Alexa488 [2] = biological target: T2, αSOs-Alexa488 (Homo sapiens, UniProt P37840); assay: FIDA binding of αSOs to neuronal proteins in solution
[3] = Ultracentrifugation for compound-vesicle binding; details: 100 μM compound, 1 mM DOPG vesicles, 30 min, ultracentrifugation 1 h 40 000 rpm
αSO = αSO (Homo sapiens, UniProt P37840); assay: biochemical; assay type: binding; details: for αSO binding signal in sandwich ELISA vs positive control: 2 mM compound, 1 μg mL^−1 αSOs
[4] = biological target: αSOs-Alexa488 binding to DOPG liposomes (Homo sapiens, UniProt P37840); assay: FIDA αSO-vesicle binding inhibition assay; details: 5 μM compound, 50 μM DOPG; αSO-vesicle complex without compound ∼60 nm
[5] = biological target: T1, αSO (α-synuclein oligomers); assay: Membrane permeabilization; assay type: biochemical; details: for Response in dose-response calcein assay: even at 20 μM
αSOs-Alexa488 [6] = biological target: T2, αSOs-Alexa488; assay: FIDA effect of lead compounds on free αSOs; assay type: binding; details: 150 nM αSO, 5 μM compound; 13% without compound
[7] = tested on: human neuroblastoma cells; details: by inhibiting interactions with lipid membranes; cited from earlier work

Compound: C/C=C1/[C@H](O[C@@H]2O[C@H](CO)[C@@H](O)[C@H](O)[C@H]2O)OC=C(C(=O)OC)[C@H]1CC(=O)OCCc1ccc(O)c(O)c1 [oleuropein]
Inhibition of calcein release ([1]; negative control): weak or no inhibitory effect

Effect of protein ligand on α-syn aggregation (ThT, words) (α-syn; 20 μM α-syn monomer, 1 μM ligand): dramatic reduction in aggregation
Compound: Cofilin-1 [Cfl1]
Change in Rh of αSOs-Alexa488 on titration with ligand (αSOs-Alexa488 [2]; up to 150 μM ligand, in solution): little change in Rh

Percentage of compound bound to DOPG vesicles (pelleted) [3]: 60–95%
αSO binding signal in sandwich ELISA vs positive control (αSO): to a smaller extent
Effect on lag phase of α-syn aggregation (α-syn; 20 μM α-syn, 20 μM compound): modestly increased the lag phase
Apparent size (Rh) of αSOs-Alexa488 in the presence of DOPG liposomes and compound [4]: ~10 nm
IC50 [5]: 0.32 µM
Compound: COc1ccccc1CNCCCCCCNCCCCCCCCNCCCCCCNCc1ccccc1OC [A6, Methoctramine]

Percentage of compound bound to DOPG vesicles (pelleted) [3]: 60–95%
Kd (αSO): 120 ± 90 µM
αSO binding signal in sandwich ELISA vs positive control (αSO): decrease in binding
Decrease of half-time of fibrillation compared to α-syn alone (α-syn; 20 μM α-syn, 20 μM compound): ~2 fold
Apparent size (Rh) of αSOs-Alexa488 in the presence of DOPG liposomes and compound [4]: ~10 nm
Percentage of α-syn monomers in αSO sample (αSOs-Alexa488 [6]): 23%
Compound: Cc1cc(C(C)(C)CC(C)(C)C)ccc1OCCOCC[N+](C)(C)Cc1ccccc1 [A2, Methyl benzethonium]

Effect on α-syn fibril formation (ThT, words) (α-syn; 20 μM α-syn, 20 μM compound): completely inhibited fibril formation
Response in dose-response calcein assay [5]: failed to show any response
Compound: C=C1c2cccc(O)c2C(=O)C2=C(O)[C@]3(O)C(=O)C(C(N)=O)=C(O)[C@@H](N(C)C)[C@@H]3[C@@H](O)[C@H]12 [A5, Metacycline]
αSO binding signal in sandwich ELISA vs positive control (αSO): slightly higher absorption than the positive control

Rh of αSOs-Alexa488 after binding to ligand (αSOs-Alexa488 [2]; 100–150 μM ligand, αSO alone 10 nm): ~12.5 nm
Compound: Serine-tRNA ligase [SerRS]
Reduction of half-time of α-syn fibrillation (α-syn; 20 μM α-syn, 1 μM ligand): more than 3 fold

Compound: N.N.O=C([O-])C1(C(=O)[O-])CCC1.[Pt+2] [A9, Carboplatin]
Response in dose-response calcein assay [5]: failed to show any response

Compound: CC(C)[C@@H](CC[C@@H](C)[C@H]1CC[C@H]2[C@@H]3[C@H](O)C[C@H]4C[C@@H](NCCCNCCCCN)CC[C@]4(C)[C@H]3CC[C@]12C)OS(=O)(=O)O [squalamine]
Suppression of αSO toxicity [7]: completely suppress the toxicity of αSOs

Response in dose-response calcein assay [5]: failed to show any response
Compound: CC(C)=CC[C@@H](O)C1=CC(=O)c2c(O)ccc(O)c2C1=O [A7, Shikonin]
αSO binding signal in sandwich ELISA vs positive control (αSO): slightly higher absorption than the positive control

Percentage of compound bound to DOPG vesicles (pelleted) [3]: 60–95%
Compound: CC(C)(C)CC(C)(C)c1ccc(OCCOCC[N+](C)(C)Cc2ccccc2)cc1 [A3, Benzethonium]

Percentage of compound bound to DOPG vesicles (pelleted) [3]: 0–2%
Effect on α-syn fibril formation (ThT, words) (α-syn; 20 μM α-syn, 20 μM compound): completely inhibited fibril formation
Apparent size (Rh) of αSOs-Alexa488 in the presence of DOPG liposomes and compound [4]: 50 nm
Percentage of α-syn monomers in αSO sample (αSOs-Alexa488 [6]): 22%
Compound: O=C(O[C@@H]1Cc2c(O)cc(O)cc2O[C@@H]1c1cc(O)c(O)c(O)c1)c1cc(O)c(O)c(O)c1 [EGCG]
Inhibition of calcein release ([1]; positive control): completely inhibits calcein release

Percentage of compound bound to DOPG vesicles (pelleted) [3]: 60–95%
Kd (αSO): 130 ± 40 µM
αSO binding signal in sandwich ELISA vs positive control (αSO): decrease in binding
Decrease of half-time of fibrillation compared to α-syn alone (α-syn; 20 μM α-syn, 20 μM compound): ~2 fold
Apparent size (Rh) of αSOs-Alexa488 in the presence of DOPG liposomes and compound [4]: ~10 nm
Compound: [H]/N=C(\N/C(=N/[H])NCCCCCCNC(=N)NC(=N)Nc1ccc(Cl)cc1)Nc1ccc(Cl)cc1 [A1, Chlorhexidine]

Compound: N.N.[Cl][Pt][Cl] [A8, Cisplatin]
Percentage of compound bound to DOPG vesicles (pelleted) [3]: 0–2%
